From patent US20150087686A1, “CRYSTALLINE FORMS OF SAXAGLIPTIN” (priority 2012, published 2015)
Where a name gives a salt, the structure may show the parent alone.

How the values were obtained:
Format in all cases: physicochemical
[1] = Crystal form stability at room temperature (transformation to H2-1); details: H0.75-3: after one night
Description: WO20100115974 discloses three forms of saxagliptin hydrochloride (I-S, HT-S, IV-S) but with a water content of not more than 1.5% by weight. […] On the other hand, the saxagliptin hydrochloride dihydrate H2-1 is stable. Unfortunately, it is difficult to prepare it in pure form by an industrial process which could be reproducible at industrial scale.

[2] = Solubility and stability in water at room temperature; details: for Solubility in water: volumes of water in which the form is soluble / Solubility in water compared with saxagliptin HCl dihydrate H2-1: room temperature
[3] = Chemical stability at 60° C.-37% RH (amidine impurities by HPLC-MS); details: for Color of the solid form after storage: after 1 week
Method: (§1) Crystalline and chemical stability at 60° C.-37% RH: saxagliptin crystalline form I and the known saxagliptin crystalline forms H-1, H2-1 were stored at 60° C. with 37% relative humidity (RH). The samples were analyzed by XRPD and HPLC-MS to check crystalline transformation and chemical degradation.
(§2) Crystalline and chemical stability at 60° C.—37% RH: Saxagliptin crystalline forms H-1, H2-1 and A were stored at 60° C. with 37% RH. The samples were analyzed by XRPD and HPLC-MS to check crystalline transformation and chemical degradation.

[4] = Crystalline stability at 60° C.-37% RH (XRPD); details: stored at 60° C. with 37% RH
Method: as §1, with “degradation. […] However, chemical degradations were observed (see Table 6 below).” for “degradation.”
as §2

## N#C[C@@H]1C[C@@H]2C[C@@H]2N1C(=O)[C@@H](N)C12CC3CC(CC(O)(C3)C1)C2 [Form H0.75-3, saxagliptin hydrochloride]
[1]; hydrochloride
  Crystal form stability (transformation to saxagliptin hydrochloride dihydrate H2-1): transforms to saxagliptin hydrochloride dihydrate H2-1

## N#C[C@@H]1C[C@@H]2C[C@@H]2N1C(=O)[C@@H](N)C12CC3CC(CC(O)(C3)C1)C2 [Form H2-1, saxagliptin hydrochloride dihydrate, reference compound]
[2]
  Solubility in water: volumes of water in which the form is soluble: 5 volumes of water
[1]; hydrochloride dihydrate
  Crystal form stability (transformation to saxagliptin hydrochloride dihydrate H2-1): stable

## N#C[C@@H]1C[C@@H]2C[C@@H]2N1C(=O)[C@@H](N)C12CC3CC(CC(O)(C3)C1)C2 [Form H-1, (1S,3S,5S)-2-[(2S)-2-amino-2-(3-hydroxy-1-adamantyl)acetyl]-2-azabicyclo[3.1.0]hexane-3-carbonitrile]
[3]; 16 h (Table 6)
  Δ variation amidine Impurity % (HPLC-MS), impurity (A): 0.64% (A)
[3]; 16 h (Table 7)
  Δ variation amidine Impurities A and B % (HPLC-MS), impurity (A): 0.6% (A)
[3]; 168 h (Table 6)
  Δ variation amidine Impurity % (HPLC-MS), impurity (A): 2.68%
  Δ variation amidine Impurity % (HPLC-MS), impurity (B): 2.21%
[3]; 168 h (Table 7)
  Δ variation amidine Impurities A and B % (HPLC-MS), impurity (A): 2.7%
  Δ variation amidine Impurities A and B % (HPLC-MS), impurity (B): 2.2%
[3]; 184 h (Table 6)
  Δ variation amidine Impurity % (HPLC-MS), impurity (A): 2.86% (A) +
  Δ variation amidine Impurity % (HPLC-MS), impurity (B): 2.33% (B)
[3]
  Color of the solid form after storage: became yellowish
[4]
  Crystalline transformation (XRPD): No crystalline transformations were observed

## Cl.N#C[C@@H]1C[C@@H]2C[C@@H]2N1C(=O)[C@@H](N)C12CC3CC(CC(O)(C3)C1)C2.O.O=C(O)CO [Form II, saxagliptin HCl glycolic acid cocrystal (1:1) monohydrate]
[2]
  Solubility in water (in words, description): quite soluble in water
  Solubility in water compared with saxagliptin HCl dihydrate H2-1: same solubility
  Solubility in water: volumes of water in which the form is soluble: 5 volumes of water

## Cl.N#C[C@@H]1C[C@@H]2C[C@@H]2N1C(=O)[C@@H](N)C12CC3CC(CC(O)(C3)C1)C2.NC(N)=O.NC(N)=O.NC(N)=O [Form IV, saxagliptin HCl.urea cocrystal (1:3)]
[2]
  Solubility in water (in words, description): very soluble in water
  Solubility in water compared with saxagliptin HCl dihydrate H2-1: more soluble
  Solubility in water: volumes of water in which the form is soluble: approximately 2.5 volumes of water

## N#C[C@@H]1C[C@@H]2C[C@@H]2N1C(=O)[C@@H](N)C12CC3CC(CC(O)(C3)C1)C2 [Form P-5, saxagliptin hydrochloride]
[1]; hydrochloride
  Crystal form stability (transformation to saxagliptin hydrochloride dihydrate H2-1): not very stable

## N#C[C@@H]1C[C@@H]2C[C@@H]2N1C(=O)[C@@H](N)C12CC3CC(CC(O)(C3)C1)C2 [HT-S, saxagliptin hydrochloride]
[1]; hydrochloride
  Crystal form stability (transformation to saxagliptin hydrochloride dihydrate H2-1): not very stable

## N#C[C@@H]1C[C@@H]2C[C@@H]2N1C(=O)[C@@H](N)C12CC3CC(CC(O)(C3)C1)C2 [I-S, saxagliptin hydrochloride]
[1]; hydrochloride
  Crystal form stability (transformation to saxagliptin hydrochloride dihydrate H2-1): not very stable

## N#C[C@@H]1C[C@@H]2C[C@@H]2N1C(=O)[C@@H](N)C12CC3CC(CC(O)(C3)C1)C2 [IV-S, saxagliptin hydrochloride]
[1]; hydrochloride
  Crystal form stability (transformation to saxagliptin hydrochloride dihydrate H2-1): not very stable

## saxagliptin HCl.malonic acid cocrystal (3:2) hydrate [Form III]
[2]
  Solubility in water (in words, description): soluble in water
  Solubility in water compared with saxagliptin HCl dihydrate H2-1: solubility similar
  Solubility in water: volumes of water in which the form is soluble: approximately 4 volumes of water

## saxagliptin HCl.saxagliptin cocrystal (1:1) hydrate [Form I]
[2]
  Solubility in water (in words, description): soluble in water
[2]; 20 vol. in water at room temperature (20-25° C.)
  Solubility in water: soluble
[2]; 20 vol. in water at room temperature, after 24 h
  Stability in water (reprecipitation): reprecipitation was not observed
[3]
  Degradation rate / stability compared with free base H-1 and hydrochloride H2-1: much lower
  Color of the solid form after storage: remained white
[3]; 16 h (Table 6)
  Δ variation amidine Impurity % (HPLC-MS), impurity (A): 0.08% (A)
[3]; 168 h (Table 6)
  Δ variation amidine Impurity % (HPLC-MS), impurity (A): 0.38% (A)
[3]; 184 h (Table 6)
  Δ variation amidine Impurity % (HPLC-MS), impurity (A): 0.40% (A)
[4]
  Crystalline transformation (XRPD): No crystalline transformations were observed
